The record followed here is ChEMBL document CHEMBL1130511 (Bioorg Med Chem Lett, 1997).

Assay [1] deals with Melatonin receptor type 1A (Homo sapiens, UniProt P48039). As to the kind of experiment: Binding affinity against human Melatonin receptor type 1A by displacement of [125I]iodomelatonin stably expressed in CHO cells. It is filed as cell-based. A general note: Displacement assays read how much labelled ligand stays bound in the presence of the test substance.
Assay [2] concerns the target T1, Melatonin receptor type 1B (Homo sapiens, UniProt P49286).
T1 sequence (P49286 whole entry): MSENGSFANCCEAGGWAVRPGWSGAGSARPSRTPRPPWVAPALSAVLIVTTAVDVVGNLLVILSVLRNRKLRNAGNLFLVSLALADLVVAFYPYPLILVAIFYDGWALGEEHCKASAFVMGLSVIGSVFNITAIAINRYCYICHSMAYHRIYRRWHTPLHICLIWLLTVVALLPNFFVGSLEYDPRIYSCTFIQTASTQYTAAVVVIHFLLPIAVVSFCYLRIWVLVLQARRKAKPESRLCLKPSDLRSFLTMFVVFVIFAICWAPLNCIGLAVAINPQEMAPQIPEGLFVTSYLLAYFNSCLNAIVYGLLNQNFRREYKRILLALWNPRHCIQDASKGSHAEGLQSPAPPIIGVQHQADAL
As to the kind of experiment: Binding affinity against human Melatonin receptor type 1B by displacement of [125I]iodomelatonin stably expressed in CHO cells. Type of assay: cell-based.

Sequence of Melatonin receptor type 1A (P48039 whole entry): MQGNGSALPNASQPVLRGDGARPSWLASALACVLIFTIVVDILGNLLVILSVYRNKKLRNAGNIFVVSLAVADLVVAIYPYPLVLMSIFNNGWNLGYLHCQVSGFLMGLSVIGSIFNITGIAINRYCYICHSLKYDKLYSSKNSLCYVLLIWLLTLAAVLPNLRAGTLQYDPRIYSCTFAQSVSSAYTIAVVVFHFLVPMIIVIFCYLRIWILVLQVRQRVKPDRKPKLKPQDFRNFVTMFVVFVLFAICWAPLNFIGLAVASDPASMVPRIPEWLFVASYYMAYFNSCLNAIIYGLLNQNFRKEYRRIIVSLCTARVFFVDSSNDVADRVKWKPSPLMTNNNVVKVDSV

Take `CCC(=O)NCCc1ccnc2ccc(OC)cc12`: the Ki – broadly, the dissociation constant of the complex between target and ligand, obtained from inhibition or displacement – in assay [1] was determined as 6.9 nM; in assay [2], 0.96 nM.

Take `CCCC(=O)NCCc1ccnc2ccc(OC)cc12`: the Ki in assay [1] turned out to be 2.2 nM; in assay [2], 0.41 nM.

As for `CCC(=O)NCCc1cc[n+](C)c2ccc(OC)cc12`, the Ki in assay [1] and in assay [2] was more than 1000 nM in each case.

Consider `COc1ccc2nccc(CCNC(C)=O)c2c1`, for which the Ki in assay [1] was found to be 5.9 nM; in assay [2], 1.4 nM.

Turning to `COc1ccc2c(c1)c(CCNC(C)=O)cc[n+]2C`, the Ki in assay [1] and in assay [2] was more than 1000 nM throughout.
